SMILES strings stand for the structures. Like-named read-outs stand apart in the source and are kept apart here.

The assay has as its system RSV (Long). The assay is described as follows: RSV cytopathic effect (CPE)-based viral replication assay. Format: cell-based, respiratory syncytial virus (RSV). To be noted: read-out: EC50 (nm). The essentials: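 HEp-2 cells, 2,500 per well in DMEM with 2% heat-inactivated FBS, treated with 10-point compound dilutions and infected with RSV Long at MOI 0.015. After 3 days at 37 °C, 5% CO2, viability read by CellTiter-Glo luminescence; EC50 derived from CPE data.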

Where [1] appears, read: human respiratory syncytial virus, HEp-2, 72 h, HEp-2 cells infected with RSV Long at MOI 0.015, 3 days at 37° C., cell viability by CellTiter-Glo luminescence.
[2] abbreviates: HEp-2 cells infected with RSV Long at MOI 0.015, 3 days at 37° C., cell viability by CellTiter-Glo luminescence.
Setting [3] is: human respiratory syncytial virus, HEp-2, 72 h.

As usually defined, the EC50 is the concentration at which the effect is half-maximal. Turning to `CS(=O)(=O)N1CC2(C1)C(=O)N(Cc1ncc3ccccc3c1-c1ccc(F)nc1)c1ccccc12` [Example 78], the EC50 under setting [1] was found to be 0.9 nM. Consider `CS(=O)(=O)N1CC2(C1)C(=O)N(Cc1ncc3ccccc3c1-c1ccc(C(F)(F)F)cc1)c1ccccc12` [Example 79, 1-(Methylsulfonyl)-1′-((4-(4-(trifluoromethyl)phenyl)isoquinolin-3-yl)methyl)spiro[azetidine-3,3′-indolin]-2′-one], for which, under setting [1], the EC50 was 8.7 nM. On the same count and under the same terms, for `CC(C)(C)NC(=O)N1CC2(C1)C(=O)N(Cc1ncc3ccccc3c1-c1ccc(C#N)nc1)c1ccccc12` [Example 81] the value was 1.4 nM; for `N#Cc1ccc(-c2c(CN3c4ccccc4[C@]4(C[C@H](O)C4)C3=O)ncc3ccccc23)cn1` [Example 82], 11 nM; for `N#Cc1ccc(-c2c(CN3c4ccccc4[C@]4(C[C@@H](O)C4)C3=O)ncc3ccccc23)cn1` [Example 83], 9 nM.

Consider `COC(=O)NC1CC2(C1)C(=O)N(Cc1ncc3ccccc3c1-c1ccc(C#N)nc1)c1ccccc12` (stereo not drawn) [Example 84-1], for which the concentration for a half-maximal effect (EC50) under setting [1] came to 7.2 nM. On to `COC(=O)NC1CC2(C1)C(=O)N(Cc1ncc3ccccc3c1-c1ccc(C#N)nc1)c1ccccc12` (stereo not drawn) [Example 84-2], for which the EC50 under setting [2] stood at 4.5 nM. As for `COCCN1CC2(C1)C(=O)N(Cc1ncc3ccccc3c1-c1ccc(F)nc1)c1ccccc12` [Example 85c, 1′-((4-(6-Fluoropyridin-3-yl)isoquinolin-3-yl)methyl)-1-(2-methoxyethyl)spiro[azetidine-3,3′-indolin]-2′-one], under setting [1], the concentration for a half-maximal effect (EC50) worked out at 42 nM.

With `O=C1N(Cc2ncc3ccccc3c2-c2ccc(F)nc2)c2ccccc2C12CN(CCF)C2` [Example 86, 1-(2-fluoroethyl)-1′-((4-(6-fluoropyridin-3-yl)isoquinolin-3-yl)methyl)spiro[azetidine-3,3′-indolin]-2′-one], under setting [1], the 50% effective concentration (EC50) came to 20 nM.

Consider `O=c1n(Cc2ncc3ccccc3c2-c2ccc(O)nc2)c2ccccc2n1C1CC1` [Example 88, 1-Cyclopropyl-3-((4-(6-hydroxypyridin-3-yl)isoquinolin-3-yl)methyl)-1H-benzo[d]imidazol-2(3H)-one], for which, under setting [1], the EC50 was found to be 8.5 nM.

As for `CNC(=O)OC1CC2(C1)C(=O)N(Cc1ncc3ccccc3c1-c1ccc(C#N)nc1)c1ccccc12` (stereo not drawn) [Example 89, 1′-((4-(6-Cyanopyridin-3-yl)isoquinolin-3-yl)methyl)-2′-oxospiro[cyclobutane-1,3′-indolin]-3-yl methylcarbamate], the EC50 under setting [3] worked out at 5.8 nM.

For the compound `CC1(n2c(=O)n(Cc3ncc4ccccc4c3-c3ccc(C#N)nc3)c3ccccc32)CC1` [Example 90b, 5-(3-((3-(1-methylcyclopropyl)-2-oxo-2,3-dihydro-1H-benzo[d]imidazol-1-yl)methyl)isoquinolin-4-yl)picolinonitrile], the 50% effective concentration (EC50) under setting [1] is 5.1 nM. On the same count and under the same terms, for `CC1(OC(=O)N2CC3(C2)C(=O)N(Cc2ncc4ccccc4c2-c2ccc(C#N)nc2)c2ccccc23)CC1` [Example 91b, 1-Methylcyclopropyl 1′-((4-(6-cyanopyridin-3-yl)isoquinolin-3-yl)methyl)-2′-oxospiro[azetidine-3,3′-indoline]-1-carboxylate] the value was 0.4 nM; for `COC(=O)N1CC2(C1)C(=O)N(Cc1ncc3ccccc3c1-c1cccnc1)c1ccccc12` [Example 92b, Methyl 2′-oxo-1′-((4-(pyridin-3-yl)isoquinolin-3-yl)methyl)spiro[azetidine-3,3′-indoline]-1-carboxylate], 0.67 nM. Turning to `COC(=O)N1CC2(C1)C(=O)N(Cc1ncc3ccccc3c1-c1ccc(C#N)c(F)c1)c1ccccc12` [Example 93, Methyl 1′-((4-(4-cyano-3-fluorophenyl)isoquinolin-3-yl)methyl)-2′-oxospiro[azetidine-3,3′-indoline]-1-carboxylate], under setting [3], the concentration for a half-maximal effect (EC50) was found to be 4.4 nM. For the compound `NC1(C(=O)N2CC3(C2)C(=O)N(Cc2ncc4ccccc4c2-c2cncc(F)c2)c2ccccc23)CC1` [Example 94, 1-(1-aminocyclopropanecarbonyl)-1′-((4-(5-fluoropyridin-3-yl)isoquinolin-3-yl)methyl)spiro[azetidine-3,3′-indolin]-2′-one], the EC50 under setting [1] worked out at 20 nM. The same measure, in the same setting: for `COC(=O)N1CC2(C1)C(=O)N(Cc1ncc3ccccc3c1-c1ccnc(F)c1)c1ccccc12` [Example 95b, Methyl 1′-((4-(2-fluoropyridin-4-yl)isoquinolin-3-yl)methyl)-2′-oxospiro[azetidine-3,3′-indoline]-1-carboxylate] the value was 1.8 nM; for `COC(=O)N1CC2(C1)C(=O)N(Cc1ncc3ccccc3c1-c1ccc(F)nc1F)c1ccccc12` [Example 96, Methyl 1′-((4-(2,6-difluoropyridin-3-yl)isoquinolin-3-yl)methyl)-2′-oxospiro[azetidine-3,3′-indoline]-1-carboxylate], 2.2 nM. Still for that read-out and setting: the result for `COC(=O)N1CC2(C1)C(=O)N(Cc1ncc3ccccc3c1-c1ccncc1)c1ccccc12` [Example 97, Methyl 2′-oxo-1′-((4-(pyridin-4-yl)isoquinolin-3-yl)methyl)spiro[azetidine-3,3′-indoline]-1-carboxylate] reads 0.45 nM; that for `CS(=O)(=O)N1CCC2(CC1)C(=O)N(Cc1ncc3ccccc3c1-c1cncs1)c1cnccc12` [Example 98c], 1.9 nM.

For `COC(=O)N1CC2(C1)C(=O)N(Cc1ncc3ccccc3c1-c1ccc(S(N)(=O)=O)cc1)c1ccccc12` [Example 99, Methyl 2′-oxo-1′-((4-(4-sulfamoylphenyl)isoquinolin-3-yl)methyl)spiro[azetidine-3,3′-indoline]-1-carboxylate], under setting [1], the half-maximal effective concentration (EC50) was determined as 0.75 nM. `COC(=O)N1CC2(C1)C(=O)N(Cc1ncc3ccccc3c1-c1cncs1)c1ccccc12` [Example 100, Methyl 2′-oxo-1′-((4-(thiazol-5-yl)isoquinolin-3-yl)methyl)spiro[azetidine-3,3′-indoline]-1-carboxylate]: the EC50 under setting [1] came to 0.4 nM. `COC(=O)N1CC2(C1)C(=O)N(Cc1ncc3ccccc3c1-c1ccc(C#N)cn1)c1ccccc12` [Example 101, Methyl 1′-((4-(5-cyanopyridin-2-yl)isoquinolin-3-yl)methy)-2′-oxospiro[azetidine-3,3′-indoline]-1-carboxylate]: the EC50 under setting [3] was found to be 11 nM. With `COC(=O)N1CC2(C1)C(=O)N(Cc1ncc3ccccc3c1-c1ccccn1)c1ccccc12` [Example 102, Methyl 2′-oxo-1′-((4-(pyridin-2-yl)isoquinolin-3-yl)methyl)spiro[azetidine-3,3′-indoline]-1-carboxylate], the EC50 under setting [1] is 194 nM. On to `COC(=O)N1CC2(C1)C(=O)N(Cc1ncc3ccccc3c1-c1cnccn1)c1ccccc12` [Example 103, Methyl 2′-oxo-1′-((4-(pyrazin-2-yl)isoquinolin-3-yl)methyl)spiro[azetidine-3,3′-indoline]-1-carboxylate], for which, under setting [1], the concentration giving a half-maximal response (EC50) came to 18 nM. Still for that read-out and setting: for `COC(=O)N1CC2(C1)C(=O)N(Cc1ncc3ccccc3c1-c1ccc(N)nc1)c1ccccc12` [Example 104, methyl 1′-((4-(6-aminopyridin-3-yl)isoquinolin-3-yl)methyl)-2′-oxospiro[azetidine-3,3′-indoline]-1-carboxylate] the value was 1.5 nM. The same measure, in the same setting: for `COC(=O)N1CC2(C1)C(=O)N(Cc1ncc3ccccc3c1-c1ccc(NS(C)(=O)=O)cc1)c1ccccc12` [Example 105, methyl 1′-((4-(4-(methylsulfonamido)phenyl)isoquinolin-3-yl)methyl)-2′-oxospiro[azetidine-3,3′-indoline]-1-carboxylate] the value was 0.85 nM; for `NC1(C(=O)N2CCC3(CC2)C(=O)N(Cc2ncc4ccccc4c2-c2cncc(F)c2)c2cnccc23)CC1` [Example 106c, 1-(1-aminocyclopropanecarbonyl)-1′-((4-(5-fluoropyridin-3-yl)isoquinolin-3-yl)methyl)spiro[piperidine-4,3′-pyrrolo[2,3-c]pyridin]-2′(1′H)-one], 3.7 nM. Still for that read-out and setting: for `CNC1(C(=O)N2CCC3(CC2)C(=O)N(Cc2ncc4ccccc4c2-c2ccc(C(N)=O)nc2)c2cnccc23)CC1` [Example 108b, 5-(3-((1-(1-(Methylamino)cyclopropanecarbonyl)-2′-oxospiro[piperidine-4,3′-pyrrolo[2,3-c]pyridin]-1′(2′H)-yl)methyl)isoquinolin-4-yl)picolinamide] the value was 1.2 nM; for `CNC1(C(=O)N2CCC3(CC2)C(=O)N(Cc2ncc4ccccc4c2-c2ccc(C(=O)NC4CC4)nc2)c2cnccc23)CC1` [Example 109, N-cyclopropyl-5-(3-((1-(1-(methylamino)cyclopropanecarbonyl)-2′-oxospiro[piperidine-4,3′-pyrrolo[2,3-c]pyridin]-1′(2′H)-yl)methyl)isoquinolin-4-yl)picolinamide], 3.8 nM. For the compound `CS(=O)(=O)N1CCC2(CC1)C(=O)N(Cc1ncc3ccccc3c1-c1ccc(F)nc1)c1cnccc12` [Example 110b, 1′-((4-(6-fluoropyridin-3-yl)isoquinolin-3-yl)methyl)-1-(methylsulfonyl)spiro[piperidine-4,3′-pyrrolo[2,3-c]pyridin]-2′(1′H)-one], the concentration for a half-maximal effect (EC50) under setting [1] is 0.86 nM. The same measure, in the same setting: the result for `CNC1(C(=O)N2CCC3(CC2)C(=O)N(Cc2ncc4ccccc4c2-c2ccc(F)nc2)c2cnccc23)CC1` [Example 111c, 1′-((4-(6-fluoropyridin-3-yl)isoquinolin-3-yl)methyl)-1-(1-(methylamino)cyclopropanecarbonyl)spiro[piperidine-4,3′-pyrrolo[2,3-c]pyridin-]2′(1′H)-one] reads 1.4 nM. Regarding `O=C1CC(c2c(Cn3c(=O)n(C4CC4)c4ccncc43)ncc3ccccc23)CN1` (stereo not drawn) [Example 112c, 1-cyclopropyl-3-((4-(5-oxopyrrolidin-3-yl)isoquinolin-3-yl)methyl)-1H-imidazo[4,5-c]pyridin-2(3H)-one], under setting [2], the EC50 was determined as 12 nM.

(Values after patent publication US20190002436A1, “RESPIRATORY SYNCYTIAL VIRUS INHIBITORS” (MEDIVIR AB, priority 2015, published 2019).)
